Reference: ChEMBL document CHEMBL1201862, “PubChem BioAssay data set” (2004)
The source made the active and inactive calls.

Tests used:
[1] = tested on: P388/ADR; assay: cells; assay type: functional; conditions: Mus musculus
[2] = tested on: P388; assay: cells; assay type: functional; conditions: Mus musculus
[3] = tested on: SN12K1; assay: cells; assay type: functional; conditions: Homo sapiens
[4] = target: T1, Coagulation factor XII (Homo sapiens, UniProt P00748); assay type: functional;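 further: activated factor XIIa alpha cleaving a fluorogenic AMC peptide substrate; inhibitor potency from loss of enzyme activity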
T1 sequence (P00748 whole entry): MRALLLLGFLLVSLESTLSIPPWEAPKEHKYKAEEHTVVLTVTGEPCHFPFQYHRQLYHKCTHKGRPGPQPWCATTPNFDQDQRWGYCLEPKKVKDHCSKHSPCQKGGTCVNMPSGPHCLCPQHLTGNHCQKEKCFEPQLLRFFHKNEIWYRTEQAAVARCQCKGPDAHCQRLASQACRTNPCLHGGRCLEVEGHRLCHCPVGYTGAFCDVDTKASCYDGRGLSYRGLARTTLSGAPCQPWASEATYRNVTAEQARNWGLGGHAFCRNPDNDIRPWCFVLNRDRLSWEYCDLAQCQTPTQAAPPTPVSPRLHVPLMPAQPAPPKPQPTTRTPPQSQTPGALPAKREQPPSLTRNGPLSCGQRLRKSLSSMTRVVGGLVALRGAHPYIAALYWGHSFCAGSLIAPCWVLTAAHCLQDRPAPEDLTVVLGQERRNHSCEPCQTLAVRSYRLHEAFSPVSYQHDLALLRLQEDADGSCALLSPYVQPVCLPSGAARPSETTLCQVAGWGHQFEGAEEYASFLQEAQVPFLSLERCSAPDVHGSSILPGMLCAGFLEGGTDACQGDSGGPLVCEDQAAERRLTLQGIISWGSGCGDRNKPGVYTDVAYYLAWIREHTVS

[5] = target: T2, Serine/threonine-protein phosphatase (Candida dubliniensis (strain CD36 / CBS 7987 / NCPF 3949 / NRRLY-17841) (Yeast), UniProt B9W6M3); assay: calcineurin pathway inhibitors in yeast reporter, dose response, S. cerevisiae, CDRE-lacZ, luminescence, secondary (AID 2388); assay type: functional, cell-based;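 further: yeast reporter cells carrying a calcineurin-responsive lacZ construct stimulated with calcium chloride; luminescent beta-galactosidase reporter signal in whole cells rather than isolated phosphatase activity; potency for inhibition where a drop in reporter signal means calcineurin blockade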
T2 sequence (B9W6M3 whole entry): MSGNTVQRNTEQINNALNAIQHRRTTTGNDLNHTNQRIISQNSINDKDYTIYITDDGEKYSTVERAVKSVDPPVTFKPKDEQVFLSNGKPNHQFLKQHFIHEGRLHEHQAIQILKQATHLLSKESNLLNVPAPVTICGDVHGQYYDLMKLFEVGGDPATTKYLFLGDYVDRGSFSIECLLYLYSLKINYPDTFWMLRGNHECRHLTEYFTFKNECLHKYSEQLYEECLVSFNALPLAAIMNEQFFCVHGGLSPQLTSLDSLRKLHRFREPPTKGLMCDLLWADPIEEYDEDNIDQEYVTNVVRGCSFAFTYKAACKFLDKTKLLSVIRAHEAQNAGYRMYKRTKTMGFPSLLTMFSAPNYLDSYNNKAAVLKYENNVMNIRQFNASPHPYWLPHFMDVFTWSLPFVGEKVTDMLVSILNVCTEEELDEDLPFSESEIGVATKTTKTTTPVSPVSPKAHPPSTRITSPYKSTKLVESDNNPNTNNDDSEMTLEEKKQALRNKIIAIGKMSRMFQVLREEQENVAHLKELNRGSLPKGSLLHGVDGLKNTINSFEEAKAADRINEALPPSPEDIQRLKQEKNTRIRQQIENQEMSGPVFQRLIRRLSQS

[6] = C. albicans growth with fluconazole, confirmation, fluorescence, retest (AID 2467); assay type: functional, cell-based
[7] = target: ATP-dependent molecular chaperone HSP82 (Candida albicans (strain WO-1) (Yeast), UniProt C4YTQ8); assay: loss of DOC-induced GRE-beta-galactosidase reporter signal, dose response, Hsp90 inhibitor project, S. cerevisiae, luminescence (AID 2400); assay type: functional, cell-based;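 further: beta-galactosidase luminescence from glucocorticoid response element reporter as proxy for Hsp90 function; inhibitor potency where signal loss means Hsp90 inhibition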
[8] = NIH-3T3 fibroblast cytotoxicity, dose response, cytotoxicity control, cell-based, fluorescence, Alamar Blue, secondary assay (AID 2327); assay type: functional;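 further: NIH-3T3 mouse fibroblasts cultured with fluconazole at 8 µg/mL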
[9] = LGR2 antagonists, dose response, cell-based, HEK293, CRE-luciferase reporter, cherry pick, set 2 (AID 743343); assay type: functional;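 further: transfected cells were stimulated with diluted bursicon conditioned medium after compound addition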
[10] = HEK293 cell cytotoxicity, dose response, cytotoxicity control, plate reader, cherry-picked samples (AID 743446); assay type: functional, cell-based
[11] = A549 cell cytotoxicity, dose response, cytotoxicity control, plate reader, cherry-pick, antagonist series (AID 743412); assay type: functional, cell-based
[12] = target: Beta-galactosidase (Escherichia coli, UniProt Q8VNN2); assay: PubChem AID 485352; assay type: functional
[13] = HepG2 cell cytotoxicity, dose response, cytotoxicity control, plate reader, cherry-pick, antagonist series (AID 743416); assay type: functional, cell-based
[14] = MC4R antagonists, dose response, counter-screen for LGR2 antagonist project, cell-based, plate reader, cherry pick (AID 743444); assay type: functional;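 further: transfected HEK 293 cells stimulated with alpha-MSH peptide; potency of inhibitors of the alpha-MSH evoked signal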
[15] = target: T3, Type-1 angiotensin II receptor (Homo sapiens, UniProt P30556); assay: AT1 receptor antagonists, dose response, selectivity assay for APJ receptor antagonist project, cell-based, uHTS hits (AID 463214); assay type: functional;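 further: antagonist potency against angiotensin II stimulated AT1 response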
T3 sequence (P30556 whole entry): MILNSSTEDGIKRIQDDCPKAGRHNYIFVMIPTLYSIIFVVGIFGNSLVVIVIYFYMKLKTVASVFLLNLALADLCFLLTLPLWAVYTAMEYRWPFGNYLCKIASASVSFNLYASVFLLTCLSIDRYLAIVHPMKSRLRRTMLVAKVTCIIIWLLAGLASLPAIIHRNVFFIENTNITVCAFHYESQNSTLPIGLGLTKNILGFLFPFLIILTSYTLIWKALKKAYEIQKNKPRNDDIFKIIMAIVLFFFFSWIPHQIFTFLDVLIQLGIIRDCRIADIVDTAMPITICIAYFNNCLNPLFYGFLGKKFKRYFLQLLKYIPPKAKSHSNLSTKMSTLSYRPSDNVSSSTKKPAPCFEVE

[16] = target: Luciferin 4-monooxygenase (Photinus pyralis, UniProt P08659); assay: firefly luciferase enzyme inhibitors, dose response, biochemical, luminescence (AID 1891)
[17] = tested on: HEK293; assay: inhibitors of LMP1-driven NF-kB reporter, dose response, cell-based, HEK293, luciferase, cherry-pick (AID 588343); assay type: functional; conditions: Homo sapiens
[18] = Luminescence Cell-Based Dose Confirmation HTS to Identify Inhibitors of Platelet Dense Granule Release. [Related pubchem assays: 1663 (Primary HTS), 1678 (Summary of Project)]; assay type: functional
[19] = cytotoxicity in HEK-293T cells, dose response, cytotoxicity control for BCR NF-kB inhibitor project, luminescence, B-cell screen hits (AID 489021); assay type: functional, cell-based;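 further: HEK-293T cells carrying an NF-kB luciferase reporter; cells exposed to compound for about 14 hours before viability readout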
[20] = tested on: CHO; assay: cytotoxicity in TLR9-MyD88 CHO cells, dose response, cytotoxicity control for TLR9-MyD88 binding inhibitor project, cell-based, luminescence (AID 588339); assay type: functional, hamster; conditions: Cricetulus griseus;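 further: CHO cells stably coexpressing TLR9 and MyD88 fusions from primary screen; compound exposure lasted 48 hours before viability readout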
[21] = Luminescence Cell-Based Dose Retest to Confirm Inhibitors of Cancer Stem Cells. [Related pubchem assays (depositor defined):AID2717, AID2721]; assay type: functional; conditions: Homo sapiens
[22] = tested on: Streptococcus sp. 'group A'; assay: growth inhibition of control SK(-) GAS strain, dose response, counter-screen for streptokinase expression inhibitor project, luminescence, kanamycin, BacTiterGlo, confirmation (AID 1900); assay type: functional, organism-based
[23] = cells; assay type: functional
[24] = THP-1 cell cytotoxicity, dose response, cytotoxicity control for non-replicating M. tuberculosis project (AID 489025); assay type: functional
[25] = Vero E6 cell cytotoxicity, dose response, cytotoxicity control for non-replicating M. tuberculosis project, secondary assay (AID 492998); assay type: functional, VeroE6; conditions: Vero C1008
[26] = tested on: Streptococcus; assay: Group A Streptococcus viability loss, dose response, counter-screen for streptokinase expression inhibitor project, luminescence, BacTiterGlo (AID 1915); assay type: functional, organism-based;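 further: potency for reduction of bacterial viability or growth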
[27] = target: Peroxisome proliferator-activated receptor gamma/Nuclear receptor coactivator 1 (Homo sapiens, UniProt P37231); assay: TR-FRET dose response biochemical High Throughput Screening assay for agonists of the steroid receptor coactivator 1 (SRC-1) recruitment by the peroxisome proliferator-activated receptor gamma (PPAR gamma): non-selective agonists. [Related pubchem assays (depositor defined):AID1300, AID1808, AID504735, AID631]; assay type: protein assay
[28] = target: Peroxisome proliferator-activated receptor gamma/Nuclear receptor coactivator 2 (Homo sapiens, UniProt P37231); assay: (§1) TR-FRET dose response biochemical High Throughput Screening assay for agonists of the steroid receptor coactivator 2 (SRC-2) recruitment by the peroxisome proliferator-activated receptor gamma (PPAR gamma): non-selective agonists. [Related pubchem assays: 1297, 1032 ]; assay type: functional
[29] = target: Peroxisome proliferator-activated receptor gamma/Nuclear receptor coactivator 3 (Homo sapiens, UniProt P37231); assay: as §1, with “3 (SRC-3)” for “2 (SRC-2)”, “1301 (Confirmation screen.), 1048 (Primary screen.)]” for “1297, 1032 ]”; assay type: functional

Chain of Beta-galactosidase (Q8VNN2 whole entry): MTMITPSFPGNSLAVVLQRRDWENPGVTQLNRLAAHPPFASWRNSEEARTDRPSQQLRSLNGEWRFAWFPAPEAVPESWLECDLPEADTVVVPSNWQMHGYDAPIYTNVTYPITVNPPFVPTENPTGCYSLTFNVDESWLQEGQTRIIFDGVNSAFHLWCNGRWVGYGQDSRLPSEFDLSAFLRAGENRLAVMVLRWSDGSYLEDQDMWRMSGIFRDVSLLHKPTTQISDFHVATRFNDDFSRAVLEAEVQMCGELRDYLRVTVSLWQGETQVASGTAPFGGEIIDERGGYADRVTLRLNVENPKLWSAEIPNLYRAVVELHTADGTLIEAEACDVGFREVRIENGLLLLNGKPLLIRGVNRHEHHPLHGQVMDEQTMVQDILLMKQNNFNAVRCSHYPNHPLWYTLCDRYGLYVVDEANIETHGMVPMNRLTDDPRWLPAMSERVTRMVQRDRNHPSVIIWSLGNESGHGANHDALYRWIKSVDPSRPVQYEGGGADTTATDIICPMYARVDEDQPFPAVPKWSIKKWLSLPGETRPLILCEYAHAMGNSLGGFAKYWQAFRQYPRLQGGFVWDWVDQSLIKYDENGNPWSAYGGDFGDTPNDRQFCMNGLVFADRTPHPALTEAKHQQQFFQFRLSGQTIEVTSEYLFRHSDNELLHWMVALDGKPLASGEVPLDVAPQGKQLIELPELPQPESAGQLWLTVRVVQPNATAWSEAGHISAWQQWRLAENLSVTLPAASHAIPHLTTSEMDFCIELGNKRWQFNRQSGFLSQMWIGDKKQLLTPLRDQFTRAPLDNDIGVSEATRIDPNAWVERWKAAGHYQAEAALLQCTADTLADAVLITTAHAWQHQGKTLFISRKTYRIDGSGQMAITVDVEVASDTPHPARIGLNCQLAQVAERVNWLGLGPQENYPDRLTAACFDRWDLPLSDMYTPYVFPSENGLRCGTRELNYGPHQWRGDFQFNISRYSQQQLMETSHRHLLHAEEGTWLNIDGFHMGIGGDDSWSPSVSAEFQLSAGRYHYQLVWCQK
Chain of Peroxisome proliferator-activated receptor gamma/Nuclear receptor coactivator 1 (P37231 whole entry): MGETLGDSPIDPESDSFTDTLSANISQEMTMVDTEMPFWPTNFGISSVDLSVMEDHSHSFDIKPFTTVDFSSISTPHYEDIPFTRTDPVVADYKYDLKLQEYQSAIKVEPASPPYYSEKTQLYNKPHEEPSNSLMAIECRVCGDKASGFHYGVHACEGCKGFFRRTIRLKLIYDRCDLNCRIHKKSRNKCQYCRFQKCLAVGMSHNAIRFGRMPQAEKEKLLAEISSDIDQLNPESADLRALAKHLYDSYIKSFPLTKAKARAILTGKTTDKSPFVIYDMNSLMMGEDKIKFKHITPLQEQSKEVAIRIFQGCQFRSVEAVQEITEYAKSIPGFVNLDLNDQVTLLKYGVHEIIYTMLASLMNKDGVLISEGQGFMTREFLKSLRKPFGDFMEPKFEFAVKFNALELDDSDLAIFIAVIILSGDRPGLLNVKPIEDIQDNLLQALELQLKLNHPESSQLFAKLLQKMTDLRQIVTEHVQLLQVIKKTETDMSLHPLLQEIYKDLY
Chain of Peroxisome proliferator-activated receptor gamma/Nuclear receptor coactivator 1 (Q15788 whole entry, further chain): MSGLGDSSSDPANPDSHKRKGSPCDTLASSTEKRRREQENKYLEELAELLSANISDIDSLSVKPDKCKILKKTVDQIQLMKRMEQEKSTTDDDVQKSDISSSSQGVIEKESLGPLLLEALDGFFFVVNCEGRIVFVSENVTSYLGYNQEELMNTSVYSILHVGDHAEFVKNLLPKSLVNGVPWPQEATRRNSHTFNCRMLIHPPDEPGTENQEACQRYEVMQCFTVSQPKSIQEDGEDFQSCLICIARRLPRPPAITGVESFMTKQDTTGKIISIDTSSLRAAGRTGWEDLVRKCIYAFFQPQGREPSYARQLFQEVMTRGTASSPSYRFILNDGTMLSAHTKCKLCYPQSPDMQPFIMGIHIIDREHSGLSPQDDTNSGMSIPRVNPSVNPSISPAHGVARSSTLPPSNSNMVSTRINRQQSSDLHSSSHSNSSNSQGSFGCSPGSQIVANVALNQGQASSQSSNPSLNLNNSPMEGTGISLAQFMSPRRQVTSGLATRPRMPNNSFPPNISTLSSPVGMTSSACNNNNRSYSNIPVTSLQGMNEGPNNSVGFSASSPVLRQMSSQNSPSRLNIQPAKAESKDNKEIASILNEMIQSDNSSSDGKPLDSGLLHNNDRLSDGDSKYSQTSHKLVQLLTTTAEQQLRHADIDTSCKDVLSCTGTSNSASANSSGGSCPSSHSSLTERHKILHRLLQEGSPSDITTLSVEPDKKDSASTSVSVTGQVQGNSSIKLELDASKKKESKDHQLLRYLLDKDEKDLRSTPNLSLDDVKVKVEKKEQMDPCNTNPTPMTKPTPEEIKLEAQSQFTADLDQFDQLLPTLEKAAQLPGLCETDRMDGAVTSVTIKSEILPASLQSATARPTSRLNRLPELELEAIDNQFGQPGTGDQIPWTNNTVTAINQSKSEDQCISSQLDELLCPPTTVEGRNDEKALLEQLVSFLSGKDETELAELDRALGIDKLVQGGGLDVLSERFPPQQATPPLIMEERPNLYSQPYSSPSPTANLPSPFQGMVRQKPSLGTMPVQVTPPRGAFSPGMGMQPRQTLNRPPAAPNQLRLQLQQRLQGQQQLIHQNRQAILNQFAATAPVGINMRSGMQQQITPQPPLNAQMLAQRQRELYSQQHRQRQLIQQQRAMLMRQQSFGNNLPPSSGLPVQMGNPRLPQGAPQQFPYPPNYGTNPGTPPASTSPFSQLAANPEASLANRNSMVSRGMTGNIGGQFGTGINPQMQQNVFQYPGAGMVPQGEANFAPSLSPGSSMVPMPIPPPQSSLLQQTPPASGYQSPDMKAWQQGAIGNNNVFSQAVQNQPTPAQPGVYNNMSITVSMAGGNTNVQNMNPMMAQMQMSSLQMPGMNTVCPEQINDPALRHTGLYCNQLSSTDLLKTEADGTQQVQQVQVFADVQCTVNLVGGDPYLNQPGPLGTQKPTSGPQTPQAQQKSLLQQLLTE
Chain of Peroxisome proliferator-activated receptor gamma/Nuclear receptor coactivator 2 (P37231 whole entry): as the sequence (P37231 whole entry) above
Chain of Peroxisome proliferator-activated receptor gamma/Nuclear receptor coactivator 2 (Q15596 whole entry, further chain): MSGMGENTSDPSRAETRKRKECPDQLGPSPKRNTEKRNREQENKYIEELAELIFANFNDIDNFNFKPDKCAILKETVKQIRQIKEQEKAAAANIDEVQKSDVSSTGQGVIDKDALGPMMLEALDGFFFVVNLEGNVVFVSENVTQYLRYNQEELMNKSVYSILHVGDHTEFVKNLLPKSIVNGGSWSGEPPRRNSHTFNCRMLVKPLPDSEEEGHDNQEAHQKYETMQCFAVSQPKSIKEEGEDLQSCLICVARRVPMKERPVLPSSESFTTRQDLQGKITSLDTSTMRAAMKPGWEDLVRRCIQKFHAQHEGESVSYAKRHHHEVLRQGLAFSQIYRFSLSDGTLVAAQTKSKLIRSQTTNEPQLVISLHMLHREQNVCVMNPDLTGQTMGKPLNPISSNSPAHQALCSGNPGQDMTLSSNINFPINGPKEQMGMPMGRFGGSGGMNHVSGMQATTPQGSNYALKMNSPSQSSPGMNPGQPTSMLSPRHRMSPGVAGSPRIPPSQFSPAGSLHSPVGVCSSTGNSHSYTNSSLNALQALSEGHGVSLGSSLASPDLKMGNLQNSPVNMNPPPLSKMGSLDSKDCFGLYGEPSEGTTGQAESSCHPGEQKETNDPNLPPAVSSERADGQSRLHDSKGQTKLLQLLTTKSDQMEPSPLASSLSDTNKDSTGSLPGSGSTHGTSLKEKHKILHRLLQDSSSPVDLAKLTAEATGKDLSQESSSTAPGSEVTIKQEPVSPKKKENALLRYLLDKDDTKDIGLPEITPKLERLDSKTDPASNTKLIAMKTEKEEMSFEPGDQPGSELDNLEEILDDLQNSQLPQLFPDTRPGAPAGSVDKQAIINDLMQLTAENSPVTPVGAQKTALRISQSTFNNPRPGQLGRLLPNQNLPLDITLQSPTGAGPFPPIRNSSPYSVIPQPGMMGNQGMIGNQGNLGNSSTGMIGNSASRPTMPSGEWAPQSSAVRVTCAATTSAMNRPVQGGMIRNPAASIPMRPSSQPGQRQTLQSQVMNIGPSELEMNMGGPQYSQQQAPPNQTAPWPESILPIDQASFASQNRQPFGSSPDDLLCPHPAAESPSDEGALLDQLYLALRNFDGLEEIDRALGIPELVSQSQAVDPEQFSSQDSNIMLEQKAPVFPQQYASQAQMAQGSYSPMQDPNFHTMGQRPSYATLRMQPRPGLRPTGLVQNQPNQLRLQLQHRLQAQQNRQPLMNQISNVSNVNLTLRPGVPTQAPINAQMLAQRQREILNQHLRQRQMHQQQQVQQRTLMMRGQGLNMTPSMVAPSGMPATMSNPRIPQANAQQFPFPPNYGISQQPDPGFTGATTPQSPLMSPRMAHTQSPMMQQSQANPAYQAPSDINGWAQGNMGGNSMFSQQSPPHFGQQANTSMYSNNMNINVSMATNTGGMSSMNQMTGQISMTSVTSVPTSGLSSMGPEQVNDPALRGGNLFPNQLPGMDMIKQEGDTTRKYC

Structure (SMILES): NC1(C(=O)O)CCCC1 [CYCLOLEUCINE]
- GI50 [1]: > 625 µM (inactive)
- GI50 [2]: > 625 µM (inactive)
- GI50 [3]: > 625 µM (inactive)

Structure (SMILES): Cc1c2cnccc2c(C)c2c1c1ccccc1n2CCCCCCNCc1ccccc1
- GI50 [1]: 0.246 µM (active)
- GI50 [2]: 0.269 µM (active)
- GI50 [3]: 1.02 µM (active)

Structure (SMILES): COC(=O)c1nnc(NC(C)=O)[nH]1
- IC50 [4]: 12.2 µM (active)

Structure (SMILES): C=CCOC(=O)c1sc(NC(=O)c2ccco2)nc1C
- EC50 [5]: > 180 µM (inactive)
- EC50 [6]: 0.544 µM (active)
- EC50 [7]: 29.7 µM (active)
- EC50 [8]: > 150 µM (inactive)

Structure (SMILES): Cc1ccc(-c2cc3c(nn2)-c2ccccc2C3=O)cc1
- AC50 [9]: 1.11 µM (active)
- AC50 [10]: 18.3 µM (active)
- AC50 [11]: 25.5 µM (active)
- EC50 [12]: > 40 µM (inactive)
- AC50 [13]: 35.8 µM (active)
- AC50 [14]: 1.65 µM (active)
- IC50 [15]: 2.89 µM (active)

Structure (SMILES): CCOc1ccc(N/C=C/C(=O)c2ccccc2)cc1
- EC50 [16]: 0.453 µM (active)
- AC50 [17]: 3.62 µM (active)
- EC50 [18]: 2 µM (active)

Structure (SMILES): COC(=O)c1c(-c2ccc(N(C)C)cc2)sc2ccc(OC)cc12
- IC50 [19]: > 80 µM (inactive)
- IC50 [20]: > 49.7 µM (inactive)
- AC50 [21]: 3.3 µM (active)

Structure (SMILES): COc1cccc(C(=O)Nc2nnc(-c3ccc(F)cc3)o2)c1
- EC50 [22]: 2.33 µM (active)
- IC50 [23]: 1.03 µM (active)
- EC50 [6]: 1.96 µM (active)
- CC50 [24]: 31.9 µM (active)
- CC50 [25]: 15.8 µM (active)
- EC50 [8]: > 150 µM (inactive)
- EC50 [26]: 5.74 µM (active)

Structure (SMILES): Cc1ccc(C(=O)COC(=O)CN2C(=O)C3CC=CCC3C2=O)cc1[N+](=O)[O-] (stereo unspecified)
- EC50 [12]: > 40 µM (inactive)
- IC50 [15]: 33.6 µM (not active)

Structure (SMILES): Cc1ccc(S(=O)(=O)c2nc(-c3cccs3)oc2SCC(N)=O)cc1
- EC50 [27]: 7.72 µM (active)
- EC50 [28]: 8.44 µM (active)
- EC50 [29]: > 79.4 µM (not active)
